We go through eight molecules from ChEMBL document CHEMBL1201862, “PubChem BioAssay data set” (2004).

Experiment [1] concerns the target NAD-dependent protein deacylase sirtuin-5, mitochondrial (Homo sapiens, UniProt Q9NXA8). Nature of the experiment: SIRT5 desuccinylase inhibitors, dose response, biochemical, fluorescence imaging, cherry-pick, set 5 (AID 720591).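 Further: desuccinylation of succinyl peptide AMC substrate read as fluorescence after trypsin release; potency of inhibitors that lower fluorescence and may act on trypsin instead.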
Experiment [2] in a line: NIH/3T3 fibroblast cytotoxicity, dose response, cytotoxicity control, cell-based, plate reader, dry powder, set 2 (AID 652280). It is filed as functional. The settings on record: NIH3T3.
Experiment [3] can be described thus: YAP1 pathway inhibition via CTGF transcript levels, dose response, cell-based, DLD1 colon cancer, RT-qPCR, cherry-pick (AID 1053122). In kind it is functional. The note with it: Cancer cell lines.
The nature of experiment [4]: cytotoxicity in OVCAR8 ovarian cancer cells, dose response, PAX8 project, cell-based, plate reader, dry powder samples (AID 743197). It is filed as functional. The settings on record: OVCAR-8.
Another experiment concerns the target Paired box protein Pax-8 (Homo sapiens, UniProt Q06710). Description: inhibitors of PAX8-driven TPO luciferase reporter, dose response, RMG-I cells, cherry-pick (AID 687027).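 Further: luciferase reporter driven by Pax8 target thyroperoxidase promoter measured by SteadyGlo luminescence.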 In kind it is functional, cell-based.
A short description of experiment [5]: CTGF mRNA reduction under YAP1 overexpression, dose response, mechanism study for YAP1 pathway inhibitor project, DLD1 cells, RT-qPCR, cherry-pick (AID 1053127). It is filed as functional, cell-based. The settings on record: DLD-1.
Experiment [6] can be described thus: IGROV1 ovarian cancer cell cytotoxicity, dose response, PAX8 inhibitor project, plate reader, dry powder samples (AID 743043). The note with it: IGROV-1. In kind it is functional, cell-based.
Experiment [7] can be described thus: NIH:OVCAR-3 ovarian cancer cell cytotoxicity, dose response, PAX8 inhibitor project, plate reader, dry powder samples (AID 743044). In kind it is functional, cell-based.
Experiment [8] is described as follows: Luminescence-based cell-based high throughput dose response assay to identify activators of the DAF-12 from the parasite S. stercoralis (ssDAF-12). It is filed as functional.
For experiment [9], the target named is T1, Oxysterols receptor LXR-beta (Homo sapiens, UniProt P55055).
T1 sequence (P55055 whole entry): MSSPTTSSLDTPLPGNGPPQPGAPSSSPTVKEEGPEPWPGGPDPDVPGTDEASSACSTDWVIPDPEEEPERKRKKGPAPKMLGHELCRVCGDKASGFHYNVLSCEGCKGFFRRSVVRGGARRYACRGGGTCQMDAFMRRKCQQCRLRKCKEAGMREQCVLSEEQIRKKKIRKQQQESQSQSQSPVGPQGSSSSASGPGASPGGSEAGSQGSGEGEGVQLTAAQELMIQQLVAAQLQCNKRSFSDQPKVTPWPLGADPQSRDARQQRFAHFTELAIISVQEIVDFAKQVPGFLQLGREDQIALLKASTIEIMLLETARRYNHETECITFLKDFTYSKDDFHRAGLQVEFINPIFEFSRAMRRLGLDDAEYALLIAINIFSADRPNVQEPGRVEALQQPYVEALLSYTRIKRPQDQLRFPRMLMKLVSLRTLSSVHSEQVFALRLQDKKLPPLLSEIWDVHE
Description: LXR agonists, Gal4 luciferase reporter, dose response, counter-screen for ssDAF-12 agonist project, cell-based, luminescence, HEK293, S. stercoralis campaign (AID 720737). It is filed as functional. The settings on record: read-out: IC50 (the source's name).

Experiment [10] is described as follows: cytotoxicity in OV-90 ovarian cancer cells, dose response, PAX8 inhibitor project, cell-based, plate reader, dry powder, SA8 (AID 743149). It is filed as functional.
A short description of experiment [11]: cytotoxicity in COV434 cells, dose response, cytotoxicity control for PAX8 inhibitor project, cell-based, plate reader, dry powder, SA7 (AID 743145). In kind it is functional.
Experiment [12] is described as follows: cytotoxicity in OVCAR4 cells, dose response, cytotoxicity control for PAX8 inhibitor project, cell-based, plate reader, dry powder, SA11 (AID 743150). It is filed as functional. The note with it: OVCAR-4.
Experiment [13] in a line: cytotoxicity in COV362 ovarian cancer cells, dose response, cytotoxicity control for PAX8 inhibitor project, cell-based, plate reader, dry powder, SA12 (AID 743144). In kind it is functional.
Experiment [14] is described as follows: cytotoxicity dependent on PAX8, dose response, cell-based, plate reader, dry powder (AID 743049). It is filed as functional.
A short description of experiment [15]: IOSE-T80 ovarian epithelial cell cytotoxicity, dose response, cytotoxicity control for PAX8 inhibitor project, plate reader, dry powder samples (AID 743045). In kind it is functional, cell-based.
Experiment [16] can be described thus: A2780 ovarian cancer cell cytotoxicity, dose response, cytotoxicity control, plate reader, dry powder samples (AID 743046). It is filed as functional, cell-based.
Experiment [17] in a line: HepG2 cell cytotoxicity, dose response, cytotoxicity control for Shn3 inhibitor project, CellTiter-Glo, cherry-picked (AID 624134). In kind it is functional, cell-based.
Experiment [18] is described as follows: Shn3 3'UTR reporter inhibitors, dose response, cell-based, Clone20 osteoblasts, firefly luciferase, cherry-picked (AID 624132).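 Further: firefly luciferase luminescence from reporter carrying the Shn3 3'UTR in osteoblasts.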 It is filed as functional.
In experiment [19] the target is COUP transcription factor 2 (Homo sapiens, UniProt P24468). Description: Luminescence-based cell-based high throughput dose response assay to identify inhibitors of COUP-TFII (NR2F2). It is filed as functional.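 Further: HEK293 cells transiently cotransfected with COUP-TFII expression vector and reporter; luciferase reporter luminescence driven by COUP-TFII from the pX2-168 reporter plasmid.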
Experiment [20] is described as follows: control 3'UTR Renilla luciferase suppression, dose response, counter-screen for Shn3 inhibitor project, cell-based, Clone20-Shn3RL, cherry-picked (AID 624133). It is filed as functional.
Experiment [21] has as its target T2, Heat shock factor protein 1 (Mus musculus, UniProt P38532).
T2 sequence (P38532 whole entry): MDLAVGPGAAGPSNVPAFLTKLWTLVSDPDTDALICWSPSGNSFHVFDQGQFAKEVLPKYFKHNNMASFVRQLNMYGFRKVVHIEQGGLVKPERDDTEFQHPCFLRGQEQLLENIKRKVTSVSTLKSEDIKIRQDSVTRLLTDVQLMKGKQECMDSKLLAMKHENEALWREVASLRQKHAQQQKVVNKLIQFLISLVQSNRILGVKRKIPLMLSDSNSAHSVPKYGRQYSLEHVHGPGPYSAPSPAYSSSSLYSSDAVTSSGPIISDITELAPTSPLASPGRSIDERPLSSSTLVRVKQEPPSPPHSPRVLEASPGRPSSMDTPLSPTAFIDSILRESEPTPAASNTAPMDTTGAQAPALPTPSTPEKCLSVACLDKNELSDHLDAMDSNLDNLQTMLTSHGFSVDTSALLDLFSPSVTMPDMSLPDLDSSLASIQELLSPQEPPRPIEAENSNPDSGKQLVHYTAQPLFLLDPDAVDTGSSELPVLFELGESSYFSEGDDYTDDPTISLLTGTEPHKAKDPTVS
Nature of the experiment: HSF1 potentiators in luciferase reporter cells, confirmation, cell-based, NIH3T3, luminescence, dose retest (AID 435004).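 Further: stress induced by proteasome inhibitor MG132 added 30 min after compound; luciferase reporter driven by HSF1 response element in NIH3T3 cells; actives raise luminescence as potentiators of the MG132 stress response.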 In kind it is functional.

The target in experiment [22] is Disintegrin and metalloproteinase domain-containing protein 17 (Homo sapiens, UniProt P78536). Nature of the experiment: ADAM17 protease inhibitors, dose response, counter-screen for ADAM10 exosite inhibitor project, biochemical, quenched FRET substrate (AID 743253).
Experiment [23] is described as follows: ADAM10 inhibitors, peptide cleavage, dose response, biochemical, QFRET (AID 743254).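 Further: ADAM10 enzyme with the DM2 quenched FRET peptide as substrate; EDANS fluorescence gain as the protease cuts the substrate; inhibitor potency against ADAM10 proteolytic activity.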
The nature of experiment [24]: P. falciparum 3D7-ScDHODH growth inhibitors, dose response, SYBR Green, dry powder samples (AID 1159570).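 Further: parasite growth measured after 72 hours of compound exposure.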 In kind it is functional, cell-based.
Experiment [25] can be described thus: P. falciparum Dd2 growth inhibitors, dose response, SYBR Green, cherry-picked samples (AID 1159567). In kind it is functional, cell-based.
Experiment [26] is described as follows: P. falciparum ATP4 D1247Y mutant growth inhibitors, dose response, NITD609-resistant line, SYBR Green, dry powder (AID 1159571).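 Further: parasites synchronized at ring stage by sorbitol before testing.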 It is filed as functional, cell-based.
A short description of experiment [27]: P. falciparum Dd2 growth inhibitors, dose response, SYBR Green, dry powder samples (AID 1159566).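 Further: potency for growth inhibition with lower SYBR green DNA signal.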 It is filed as functional, cell-based.

Calls of active or inactive are those of the source.

Sequence of Paired box protein Pax-8 (Q06710 whole entry): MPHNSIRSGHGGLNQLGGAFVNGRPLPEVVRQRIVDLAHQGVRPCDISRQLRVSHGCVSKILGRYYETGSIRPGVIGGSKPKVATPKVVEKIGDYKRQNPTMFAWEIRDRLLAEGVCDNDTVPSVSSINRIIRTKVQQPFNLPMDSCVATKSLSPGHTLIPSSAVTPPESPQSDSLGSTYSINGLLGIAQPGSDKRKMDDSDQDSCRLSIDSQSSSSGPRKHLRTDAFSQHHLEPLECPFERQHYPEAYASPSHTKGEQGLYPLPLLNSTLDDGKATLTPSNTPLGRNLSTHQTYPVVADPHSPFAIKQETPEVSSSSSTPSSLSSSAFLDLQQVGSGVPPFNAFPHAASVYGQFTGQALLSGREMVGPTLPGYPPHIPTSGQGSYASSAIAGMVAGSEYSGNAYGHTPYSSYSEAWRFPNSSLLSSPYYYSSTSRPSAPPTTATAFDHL
Sequence of Disintegrin and metalloproteinase domain-containing protein 17 (P78536 whole entry, the tested form may be a part): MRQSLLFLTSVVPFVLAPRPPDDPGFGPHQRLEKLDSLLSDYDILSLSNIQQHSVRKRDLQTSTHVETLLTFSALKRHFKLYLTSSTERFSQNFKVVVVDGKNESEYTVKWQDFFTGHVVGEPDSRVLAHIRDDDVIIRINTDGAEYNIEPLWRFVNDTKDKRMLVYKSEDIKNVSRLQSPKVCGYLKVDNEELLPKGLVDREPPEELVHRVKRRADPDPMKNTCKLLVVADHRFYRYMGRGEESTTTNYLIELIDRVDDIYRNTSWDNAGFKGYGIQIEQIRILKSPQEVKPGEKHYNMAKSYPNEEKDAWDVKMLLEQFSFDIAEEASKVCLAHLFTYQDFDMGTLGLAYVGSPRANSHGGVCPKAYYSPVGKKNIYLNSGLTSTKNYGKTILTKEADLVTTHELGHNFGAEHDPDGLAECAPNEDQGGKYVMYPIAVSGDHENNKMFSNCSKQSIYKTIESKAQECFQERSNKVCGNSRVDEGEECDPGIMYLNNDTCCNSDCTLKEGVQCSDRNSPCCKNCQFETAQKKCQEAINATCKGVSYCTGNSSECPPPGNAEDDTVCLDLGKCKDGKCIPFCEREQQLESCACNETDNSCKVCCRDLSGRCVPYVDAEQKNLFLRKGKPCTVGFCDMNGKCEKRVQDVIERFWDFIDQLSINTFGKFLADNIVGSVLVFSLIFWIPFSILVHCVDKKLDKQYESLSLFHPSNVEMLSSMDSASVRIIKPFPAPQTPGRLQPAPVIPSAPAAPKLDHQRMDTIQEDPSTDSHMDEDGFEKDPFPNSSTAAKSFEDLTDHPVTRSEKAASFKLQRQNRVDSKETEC
Sequence of NAD-dependent protein deacylase sirtuin-5, mitochondrial (Q9NXA8 whole entry): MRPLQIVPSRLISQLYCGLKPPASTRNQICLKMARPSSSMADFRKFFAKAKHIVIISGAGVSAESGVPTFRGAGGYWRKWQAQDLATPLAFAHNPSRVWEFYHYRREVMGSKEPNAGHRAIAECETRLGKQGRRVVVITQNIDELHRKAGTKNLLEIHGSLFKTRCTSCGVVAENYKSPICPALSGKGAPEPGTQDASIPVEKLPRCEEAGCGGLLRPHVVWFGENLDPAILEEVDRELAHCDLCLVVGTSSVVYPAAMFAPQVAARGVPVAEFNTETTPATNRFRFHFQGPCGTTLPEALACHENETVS
Sequence of COUP transcription factor 2 (P24468 whole entry): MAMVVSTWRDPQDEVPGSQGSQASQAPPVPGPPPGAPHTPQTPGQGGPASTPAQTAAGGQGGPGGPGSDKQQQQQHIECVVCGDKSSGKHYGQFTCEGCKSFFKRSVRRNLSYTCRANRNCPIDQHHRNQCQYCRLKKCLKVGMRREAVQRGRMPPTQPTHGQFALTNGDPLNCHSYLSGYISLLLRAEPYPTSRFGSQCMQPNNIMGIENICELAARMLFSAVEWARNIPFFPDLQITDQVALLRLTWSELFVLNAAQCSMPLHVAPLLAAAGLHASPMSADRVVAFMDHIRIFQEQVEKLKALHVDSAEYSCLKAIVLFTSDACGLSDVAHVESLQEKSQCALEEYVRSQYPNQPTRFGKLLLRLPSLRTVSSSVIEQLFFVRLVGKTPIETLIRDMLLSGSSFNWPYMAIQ

In the case of `CN(C)CCN1CCN(C2CN(Cc3cn(Cc4cccc(Cl)c4)nn3)S(=O)(=O)C2)CC1` (stereo unspecified), the AC50 in experiment [1] was > 30 µM (inactive).

As to `CN(C)CC#Cc1cccc(-c2nc(C(=O)Nc3ccc(-c4ccccc4)cc3)cc3c2[C@H](CCO)N([S+]([O-])C(C)(C)C)C3)c1` (stereo partly specified), the AC50 in [2] is 9.5 µM (active).

As to `O=C(Cc1ccncc1)N1CCCCN2[C@H](C1)[C@H](c1ccc(C#Cc3ccccc3F)cc1)[C@@H]2CO`, the half-maximal activity concentration (AC50) is 0.175 µM (active) in experiment [3]; > 70 µM (inactive) in experiment [4]; 7.15 µM (active) on Paired box protein Pax-8; 0.102 µM (active) in experiment [5]; 10.3 µM (active) in experiment [6]; 3.05 µM (active) in experiment [7].

In the case of `Cc1ccc([N+](=O)[O-])c2c1C(N1CC(C)OC(C)C1)C(C)(C)O2` (stereo unspecified), the IC50 in [8] was > 67.6 µM (inactive). The EC50 in experiment [9] was > 67.6 µM (inactive).

Consider `O=C(CCCN1C(=O)/C(=C\c2cccc(Br)c2)SC1=S)Nc1cccnc1`, for which the AC50 in [10] was 25.7 µM (active); in experiment [11] it was 31.6 µM (active); on Paired box protein Pax-8 it was 7.56 µM (active); in experiment [12], 30.3 µM (active); in experiment [13], 30.3 µM (active); in [14], 12.1 µM (active). The AC50 in experiment [15] is 24.8 µM (active); in experiment [6], 12.5 µM (active); in experiment [16], 17.9 µM (active); in experiment [7], 12 µM (active).

Consider `Cn1c(=O)c2nc(CCCCCCCCc3nc4ccccc4[nH]3)[nH]c2n(C)c1=O`, for which the AC50 in [17] was 3.88 µM (active); in experiment [18], 3.98 µM (active); in experiment [20], 2.89 µM (active). Moreover, the IC50 in experiment [19] was 7.5 µM (active).

Consider `O=C(Nc1cccc(Cl)c1)c1cc(S(=O)(=O)NCCc2ccc(Cl)cc2)ccc1F`, for which the EC50 in experiment [21] is > 260 µM (inactive). For the same molecule, the results for the IC50 in experiment [22] and in experiment [23] were > 69.5 µM (inactive) and > 7.72 µM (active), respectively.

As for `Cc1ccc(-c2ccccc2[C@H]2[C@@H](C#N)N(C(=O)c3cccc(F)c3)[C@H]2CO)cc1`, the AC50 in experiment [24] is 1.49 µM (active); in experiment [25], 2.52 µM (active); in experiment [26], 6.78 µM (active); in [27] it was 1.26 µM (active).
